IC50 data for 40 compounds are collected here from patent US20090311217A1, “3-SUBSTITUTED-1H-INDOLE COMPOUNDS, THEIR USE AS MTOR KINASE AND PI3 KINASE INHIBITORS, AND THEIR SYNTHESES” (priority 2008, published 2009).

Molecules are shown by their SMILES.

PI3K-alpha, sequence (P42336 whole entry, species assumed): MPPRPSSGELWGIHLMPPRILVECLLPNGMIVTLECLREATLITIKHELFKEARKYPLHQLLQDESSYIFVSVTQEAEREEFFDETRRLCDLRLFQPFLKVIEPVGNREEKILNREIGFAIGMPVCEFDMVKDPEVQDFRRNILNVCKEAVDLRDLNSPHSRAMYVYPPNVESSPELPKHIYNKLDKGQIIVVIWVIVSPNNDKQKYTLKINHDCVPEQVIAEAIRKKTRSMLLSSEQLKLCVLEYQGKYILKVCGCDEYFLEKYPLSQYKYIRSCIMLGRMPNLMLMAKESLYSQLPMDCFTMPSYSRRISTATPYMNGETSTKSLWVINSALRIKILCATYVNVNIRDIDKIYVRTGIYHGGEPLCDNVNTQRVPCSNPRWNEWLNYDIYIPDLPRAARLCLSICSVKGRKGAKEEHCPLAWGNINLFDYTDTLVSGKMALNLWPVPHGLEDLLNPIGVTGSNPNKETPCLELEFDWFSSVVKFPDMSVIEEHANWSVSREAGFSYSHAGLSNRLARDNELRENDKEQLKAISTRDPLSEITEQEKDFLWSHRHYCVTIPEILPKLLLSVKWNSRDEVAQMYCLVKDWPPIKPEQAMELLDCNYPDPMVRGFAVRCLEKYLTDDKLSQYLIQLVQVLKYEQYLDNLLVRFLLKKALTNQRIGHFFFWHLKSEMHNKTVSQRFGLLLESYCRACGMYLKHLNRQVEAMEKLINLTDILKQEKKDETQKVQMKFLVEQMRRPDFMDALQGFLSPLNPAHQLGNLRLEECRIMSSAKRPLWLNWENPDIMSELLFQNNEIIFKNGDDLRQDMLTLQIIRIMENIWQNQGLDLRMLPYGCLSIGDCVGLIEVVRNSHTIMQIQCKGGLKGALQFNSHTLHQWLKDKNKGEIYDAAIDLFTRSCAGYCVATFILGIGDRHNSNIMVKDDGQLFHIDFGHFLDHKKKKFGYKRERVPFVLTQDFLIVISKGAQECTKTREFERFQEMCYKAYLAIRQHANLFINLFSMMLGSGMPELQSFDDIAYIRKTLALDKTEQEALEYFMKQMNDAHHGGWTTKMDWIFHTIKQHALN
PI3K-alpha, sequence (P27986 whole entry partner, species assumed): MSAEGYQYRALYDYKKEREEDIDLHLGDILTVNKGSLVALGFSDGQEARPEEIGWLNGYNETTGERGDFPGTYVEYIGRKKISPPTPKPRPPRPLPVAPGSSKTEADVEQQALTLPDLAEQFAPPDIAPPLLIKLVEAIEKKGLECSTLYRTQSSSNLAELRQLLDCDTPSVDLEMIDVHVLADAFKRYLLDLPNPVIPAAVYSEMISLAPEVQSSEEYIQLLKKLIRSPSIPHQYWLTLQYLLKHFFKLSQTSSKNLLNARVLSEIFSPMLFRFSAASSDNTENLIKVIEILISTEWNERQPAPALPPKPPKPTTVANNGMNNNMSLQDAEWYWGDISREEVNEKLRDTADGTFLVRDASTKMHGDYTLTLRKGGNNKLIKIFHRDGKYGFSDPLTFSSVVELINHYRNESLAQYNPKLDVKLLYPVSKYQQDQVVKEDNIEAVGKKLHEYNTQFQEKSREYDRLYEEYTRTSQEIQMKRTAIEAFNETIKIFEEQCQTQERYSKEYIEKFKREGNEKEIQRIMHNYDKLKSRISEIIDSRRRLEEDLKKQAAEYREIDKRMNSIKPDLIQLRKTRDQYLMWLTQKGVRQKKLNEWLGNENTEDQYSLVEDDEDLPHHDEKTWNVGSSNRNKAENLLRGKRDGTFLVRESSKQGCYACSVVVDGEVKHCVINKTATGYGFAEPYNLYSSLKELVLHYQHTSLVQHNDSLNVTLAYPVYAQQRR

The first assay addresses PI3K-alpha (Homo sapiens, UniProt P42336). The experiment in a line: PI3K-alpha fluorescence polarization assay. Format: biochemical. Particulars: PI3Kα Avg. IC50. A general note: In fluorescence polarisation assays a small probe gives low polarisation when free and higher when bound to something large.
As usually defined, the IC50 is the concentration at which inhibition is half-maximal. In turn, `CNC(=O)Oc1ccc2c(c1)C(=O)/C(=C/c1cn(CCN3CCN(C)CC3)c3ccc(OC)cc13)O2` [Compound 546, (2Z)-2-({5-methoxy-1-[2-(4-methylpiperazin-1-yl)ethyl]-1H-indol-3-yl}methylene)-3-oxo-2,3-dihydro-1-benzofuran-5-yl methylcarbamate] registered an IC50 of 0.63 µM. Still for that read-out and setting: the result for `COc1ccc2c(c1)c(/C=C1\Oc3cc(OC(=O)N(C)c4ccccc4)ccc3C1=O)c(C)n2CCN1CCN(C)CC1` [Compound 558, (2Z)-2-({5-methoxy-2-methyl-1-[2-(4-methylpiperazin-1-yl)ethyl]-1H-indol-3-yl}methylene)-3-oxo-2,3-dihydro-1-benzofuran-6-yl methyl(phenyl)carbamate] reads more than 10 µM.

The same assay, now with this note: read-out: PI3Kα Avg. IC50.
On to `Cc1cccc2c1c(/C=C1\Oc3cc(O)cc(O)c3C1=O)c(-c1ccccn1)n2C` [Compound 477, (2Z)-2-[(1,4-dimethyl-2-pyridin-2-yl-1H-indol-3-yl)methylene]-4,6-dihydroxy-1-benzofuran-3(2H)-one], for which the IC50 was determined as 1.12 µM. Still for that read-out and setting: the value for `COc1cc(-c2ccncc2)c2c(c1)c(/C=C1\Oc3cc(O)ccc3C1=O)cn2CCCC#N` [Compound 500, 4-{3-[(Z)-(6-hydroxy-3-oxo-1-benzofuran-2(3H)-ylidene)methyl]-5-methoxy-7-pyridin-4-yl-1H-indol-1-yl}butanenitrile] was 0.589 µM; that for `COc1ccc2c(c1)c(/C=C1\Oc3ccc(Br)cc3C1=O)cn2CCCN(C)C` [Compound 516, (2Z)-5-bromo-2-({1-[3-(dimethylamino)propyl]-5-methoxy-1H-indol-3-yl}methylene)-1-benzofuran-3(2H)-one] was 9.75 µM; that for `CN(c1ccccc1)c1cccc2c1c(/C=C1\Oc3cc(O)cc(O)c3C1=O)cn2C` [Compound 542, (2Z)-4,6-dihydroxy-2-({1-methyl-4-[methyl(phenyl)amino]-1H-indol-3-yl}methylene)-1-benzofuran-3(2H)-one] was 0.359 µM. Regarding `O=C1C(=Cc2c[nH]c3ccccc23)Oc2ccccc21` [Example 1, 2-(1H-indol-3-ylmethylene)-1-benzofuran-3(2H)-one], the half-inhibitory concentration (IC50) is more than 10 µM. On the same count and under the same terms, the value for `Cn1c(-c2ccccc2)c(C=C2Oc3cc(O)ccc3C2=O)c2ccccc21` [Example 7, 6-hydroxy-2-[(1-methyl-2-phenyl-1H-indol-3-yl)methylene]-1-benzofuran-3(2H)-one] was more than 10 µM; that for `COc1cccc2c1OC(=Cc1c[nH]c3ccccc13)C2=O` [Example 9, 2-(1H-indol-3-ylmethylene)-7-methoxy-1-benzofuran-3(2H)-one] was more than 10 µM; that for `COc1cccc2c1OC(=Cc1c(-c3ccccc3)[nH]c3ccccc13)C2=O` [Example 10, 7-methoxy-2-[(2-phenyl-1H-indol-3-yl)methylene]-1-benzofuran-3(2H)-one] was more than 10 µM.

With `COc1cccc2c1OC(=Cc1c(-c3ccccc3)n(C)c3ccccc13)C2=O` [Example 11, 7-methoxy-2-[(1-methyl-2-phenyl-1H-indol-3-yl)methylene]-1-benzofuran-3(2H)-one], the half-maximal inhibitory concentration (IC50) is more than 10 µM. Still for that read-out and setting: the result for `COc1cccc2c1OC(=Cc1cn(C)c3ccccc13)C2=O` [Example 12, 7-methoxy-2-[(1-methyl-1H-indol-3-yl)methylene]-1-benzofuran-3(2H)-one] reads more than 10 µM; that for `O=C1/C(=C/c2c(-c3ccc(Cl)cc3)[nH]c3ccccc23)Oc2ccccc21` [Example 17, (2Z)-2-{[2-(4-chlorophenyl)-1H-indol-3-yl]methylene}-1-benzofuran-3(2H)-one], 2.49 µM; that for `O=C1/C(=C/c2c(-c3ccc4ccccc4c3)[nH]c3ccccc23)Oc2ccccc21` [Example 18, (2Z)-2-{[2-(2-naphthyl)-1H-indol-3-yl]methylene}-1-benzofuran-3(2H)-one], 2.55 µM. As to `O=C1/C(=C/c2c(-c3ccc(F)cc3)[nH]c3ccccc23)Oc2ccccc21` [Example 19, (2Z)-2-{[2-(4-fluorophenyl)-1H-indol-3-yl]methylene}-1-benzofuran-3(2H)-one], the IC50 came out at 1.98 µM. Still for that read-out and setting: the result for `Cc1[nH]c2ccc([N+](=O)[O-])cc2c1/C=C1\Oc2ccccc2C1=O` [Example 20, (2Z)-2-[(2-methyl-5-nitro-1H-indol-3-yl)methylene]-1-benzofuran-3(2H)-one] reads more than 10 µM. Take `Cc1[nH]c2ccccc2c1/C=C1\Oc2ccccc2C1=O` [Example 21, (2Z)-2-[(2-methyl-1H-indol-3-yl)methylene]-1-benzofuran-3(2H)-one]: the IC50 was more than 10 µM. The same measure, in the same setting: the result for `Cc1ccc2c(/C=C3\Oc4ccccc4C3=O)c[nH]c2c1` [Example 22, (2Z)-2-[(6-methyl-1H-indol-3-yl)methylene]-1-benzofuran-3(2H)-one] reads more than 10 µM. As for `Cc1cccc2c(/C=C3\Oc4ccccc4C3=O)c[nH]c12` [Example 23, (2Z)-2-[(7-methyl-1H-indol-3-yl)methylene]-1-benzofuran-3(2H)-one], the IC50 is more than 10 µM. The same measure, in the same setting: the result for `O=C1/C(=C/c2c[nH]c3ccc(Br)cc23)Oc2ccccc21` [Example 24, (2Z)-2-[(5-bromo-1H-indol-3-yl)methylene]-1-benzofuran-3(2H)-one] reads more than 10 µM; that for `O=C1/C(=C/c2cn(Cc3ccccc3)c3ccccc23)Oc2ccccc21` [Example 25, (2Z)-2-[(1-benzyl-1H-indol-3-yl)methylene]-1-benzofuran-3(2H)-one], more than 10 µM.

On to `O=C1/C(=C/c2c(-c3ccc(Cl)cc3)[nH]c3ccccc23)Oc2cc(O)ccc21` [Example 26, (2Z)-2-{[2-(4-chlorophenyl)-1H-indol-3-yl]methylene}-6-hydroxy-1-benzofuran-3(2H)-one], for which the concentration for half-maximal inhibition (IC50) stood at 3.81 µM. In the case of `O=C1/C(=C/c2c(-c3ccc4ccccc4c3)[nH]c3ccccc23)Oc2cc(O)ccc21` [Example 27, (2Z)-6-hydroxy-2-{[2-(2-naphthyl)-1H-indol-3-yl]methylene}-1-benzofuran-3(2H)-one], the IC50 was determined as 5.47 µM. Same read-out and setting: the result for `O=C1/C(=C/c2c(-c3ccc(F)cc3)[nH]c3ccccc23)Oc2cc(O)ccc21` [Example 28, (2Z)-2-{[2-(4-fluorophenyl)-1H-indol-3-yl]methylene}-6-hydroxy-1-benzofuran-3(2H)-one] reads 2.43 µM; that for `Cc1[nH]c2ccc([N+](=O)[O-])cc2c1/C=C1\Oc2cc(O)ccc2C1=O` [Example 29, (2Z)-6-hydroxy-2-[(2-methyl-5-nitro-1H-indol-3-yl)methylene]-1-benzofuran-3(2H)-one], more than 10 µM. Regarding `Cc1[nH]c2ccccc2c1/C=C1\Oc2cc(O)ccc2C1=O` [Example 30, (2Z)-6-hydroxy-2-[(2-methyl-1H-indol-3-yl)methylene]-1-benzofuran-3(2H)-one], the IC50 is 12.8 µM. Same read-out and setting: the value for `Cc1ccc2c(/C=C3\Oc4cc(O)ccc4C3=O)c[nH]c2c1` [Example 31, (2Z)-6-hydroxy-2-[(6-methyl-1H-indol-3-yl)methylene]-1-benzofuran-3(2H)-one] was 9.6 µM; that for `O=C1/C(=C/c2c[nH]c3ccc(Br)cc23)Oc2cc(O)ccc21` [Example 32, (2Z)-2-[(5-bromo-1H-indol-3-yl)methylene]-6-hydroxy-1-benzofuran-3(2H)-one] was 6.47 µM. The same measure, in the same setting: the result for `O=C1/C(=C/c2cn(Cc3ccccc3)c3ccccc23)Oc2cc(O)ccc21` [Example 33, (2Z)-2-[(1-benzyl-1H-indol-3-yl)methylene]-6-hydroxy-1-benzofuran-3(2H)-one] reads more than 10 µM.

For `COc1cccc2c1O/C(=C\c1c(-c3ccc(Cl)cc3)[nH]c3ccccc13)C2=O` [Example 35, (2Z)-2-{[2-(4-chlorophenyl)-1H-indol-3-yl]methylene}-7-methoxy-1-benzofuran-3(2H)-one], the 50% inhibitory concentration (IC50) was 1.94 µM. On the same count and under the same terms, the result for `COc1cccc2c1O/C(=C\c1c(-c3ccc4ccccc4c3)[nH]c3ccccc13)C2=O` [Example 36, (2Z)-7-methoxy-2-{[2-(2-naphthyl)-1H-indol-3-yl]methylene}-1-benzofuran-3(2H)-one] reads more than 10 µM. For `COc1cccc2c1O/C(=C\c1c(-c3ccc(F)cc3)[nH]c3ccccc13)C2=O` [Example 37, (2Z)-2-{[2-(4-fluorophenyl)-1H-indol-3-yl]methylene}-7-methoxy-1-benzofuran-3(2H)-one], the IC50 was 2.35 µM. Still for that read-out and setting: the result for `COc1cccc2c1O/C(=C\c1c(C)[nH]c3ccc([N+](=O)[O-])cc13)C2=O` [Example 38, (2Z)-7-methoxy-2-[(2-methyl-5-nitro-1H-indol-3-yl)methylene]-1-benzofuran-3(2H)-one] reads more than 10 µM; that for `COc1cccc2c1O/C(=C\c1c(C)[nH]c3ccccc13)C2=O` [Example 39, (2Z)-7-methoxy-2-[(2-methyl-1H-indol-3-yl)methylene]-1-benzofuran-3(2H)-one], more than 10 µM. As for `COc1cccc2c1O/C(=C\c1c[nH]c3cc(C)ccc13)C2=O` [Example 40, (2Z)-7-methoxy-2-[(6-methyl-1H-indol-3-yl)methylene]-1-benzofuran-3(2H)-one], the IC50 was more than 10 µM. In the case of `COc1cccc2c1O/C(=C\c1cn(Cc3ccccc3)c3ccccc13)C2=O` [Example 42, (2Z)-2-[(1-benzyl-1H-indol-3-yl)methylene]-7-methoxy-1-benzofuran-3(2H)-one], the IC50 is more than 10 µM.

For `COc1cccc2c1O/C(=C\c1c[nH]c3ccc(OCc4ccccc4)cc13)C2=O` [Example 43, (2Z)-2-{[5-(benzyloxy)-1H-indol-3-yl]methylene}-7-methoxy-1-benzofuran-3(2H)-one], the half-inhibitory concentration (IC50) is more than 10 µM. On the same count and under the same terms, the value for `Cn1cc(/C=C2\Oc3c(ccc(O)c3O)C2=O)c2ccccc21` [Example 57, (2Z)-6,7-dihydroxy-2-[(1-methyl-1H-indol-3-yl)methylene]-1-benzofuran-3(2H)-one] was 4.5 µM; that for `O=C1/C(=C/c2c[nH]c3ccc(F)cc23)Oc2c1ccc(O)c2O` [Example 64, (2Z)-2-[(5-fluoro-1H-indol-3-yl)methylene]-6,7-dihydroxy-1-benzofuran-3(2H)-one] was 1.72 µM. Same read-out and setting: the result for `COc1ccc2[nH]c(-c3ccccc3)c(C=C3Oc4cccc(O)c4C3=O)c2c1` [Example 79, 4-hydroxy-2-[(5-methoxy-2-phenyl-1H-indol-3-yl)methylene]-1-benzofuran-3(2H)-one] reads 1.65 µM.
